Test results: patent US7202265B2, “Indolinone combinatorial libraries and related products and methods for the treatment of disease” (Sugen, Inc., priority 1997, dated 2007)
Read-outs that look alike come from different tables or passages of the source.

How the values were obtained:
FLK-1 receptor = target: T1, FLK-1 receptor (Mus musculus, UniProt P35918); assay: FLK-1 ELISA (catalytic activity of the FLK-1 receptor in FLK-1/NIH3T3 cells); assay type: cell-based; set-up: Flk Kinase % Inhibition: concentration or dose not given beside the values; conditions: for IC50: read-out: FLK Kinase IC50
T1 construct: expressed in transfected cells; host or cells: NIH3T3 C7#3 (FLK-1/NIH3T3)
T1 sequence (P35918 20-1345): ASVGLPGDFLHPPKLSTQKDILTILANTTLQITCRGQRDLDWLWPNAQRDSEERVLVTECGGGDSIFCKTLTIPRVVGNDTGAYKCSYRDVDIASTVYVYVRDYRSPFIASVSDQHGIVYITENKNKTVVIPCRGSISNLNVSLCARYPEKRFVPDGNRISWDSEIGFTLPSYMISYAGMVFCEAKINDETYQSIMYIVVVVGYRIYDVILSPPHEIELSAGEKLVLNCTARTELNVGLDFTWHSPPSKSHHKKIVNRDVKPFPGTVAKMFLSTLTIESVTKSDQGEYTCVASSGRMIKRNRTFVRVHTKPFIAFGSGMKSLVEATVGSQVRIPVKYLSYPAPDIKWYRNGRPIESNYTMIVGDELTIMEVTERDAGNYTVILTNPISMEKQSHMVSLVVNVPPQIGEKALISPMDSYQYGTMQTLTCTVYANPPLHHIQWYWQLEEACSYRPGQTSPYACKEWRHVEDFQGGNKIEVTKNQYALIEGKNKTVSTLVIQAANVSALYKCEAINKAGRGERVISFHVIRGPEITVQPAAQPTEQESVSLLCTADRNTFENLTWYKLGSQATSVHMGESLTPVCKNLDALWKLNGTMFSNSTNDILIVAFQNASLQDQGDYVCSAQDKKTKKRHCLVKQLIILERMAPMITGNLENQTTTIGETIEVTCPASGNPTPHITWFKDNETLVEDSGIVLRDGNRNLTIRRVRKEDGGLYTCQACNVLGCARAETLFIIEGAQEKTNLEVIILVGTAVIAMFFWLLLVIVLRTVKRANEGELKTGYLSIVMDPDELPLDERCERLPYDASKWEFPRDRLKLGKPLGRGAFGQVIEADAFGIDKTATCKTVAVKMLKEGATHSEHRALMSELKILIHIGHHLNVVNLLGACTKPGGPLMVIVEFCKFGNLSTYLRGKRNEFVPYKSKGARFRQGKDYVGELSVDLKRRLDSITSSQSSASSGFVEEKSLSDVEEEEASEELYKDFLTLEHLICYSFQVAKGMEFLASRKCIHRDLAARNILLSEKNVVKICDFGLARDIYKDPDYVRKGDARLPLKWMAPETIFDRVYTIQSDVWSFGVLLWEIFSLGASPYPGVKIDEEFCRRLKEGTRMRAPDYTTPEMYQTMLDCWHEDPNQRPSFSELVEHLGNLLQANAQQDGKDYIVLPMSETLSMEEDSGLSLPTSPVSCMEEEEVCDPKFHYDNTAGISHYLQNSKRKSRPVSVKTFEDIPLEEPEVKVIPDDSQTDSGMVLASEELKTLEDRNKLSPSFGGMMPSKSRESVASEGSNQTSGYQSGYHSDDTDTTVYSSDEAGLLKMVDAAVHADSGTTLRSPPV

human MET = assay: MET biochemical kinase assay; set-up: concentration or dose not given beside the values
Source text: (d) MET Biochemical Kinase Assay
A met biochemical kinase assay may be performed for met generally as described above for other kinases by substituting that or the other kinases. In particular, ELISA plates are coated with goat anti-rabbit Fc antibodies, which are used to capture commercially available (from Santa Cruz Biotechnology) rabbit polyclonal antibodies to the cytoplasmic domain of human MET. […] The chimeric receptors, or MET, from these lysates are captured on the antibody coated plates. After washing away extraneous proteins, test compounds are added and an in vitro kinase assay is performed by addition of an appropriate kinase buffer (containing ATP, divalent metal ions, etc.). Incorporation of phosphate into the captured receptors is detected with an anti-phosphotyrosine antibody conjugate with horse radish peroxidase using TMB as a substrate for calorimetric detection.

SMILES | Met Kinase % Inhibition (human MET) | further results
COc1cc2c(cc1OC)/C(=C/c1coc3ccc(C(C)C)cc3c1=O)C(=O)N2 | – | IC50 (FLK-1 receptor; Table 10): 17.1 µM
COc1ccc2[nH]cc(/C=C3\C(=O)Nc4ccccc43)c2c1 | – | IC50 (FLK-1 receptor; Table 2): 13 µM
O=C1Nc2ccc(Cl)cc2/C1=C/c1ccc[nH]1 | – | IC50 (FLK-1 receptor; Table 10): 1.6 µM
CN(C)CCCOc1ccc(/C=C2\C(=O)Nc3ccccc32)cc1 | – | IC50 (FLK-1 receptor; Table 10): 4 µM
Cn1cc(/C=C2\C(=O)Nc3ccccc32)c2ccccc21 | – | IC50 (FLK-1 receptor; Table 2): 0.7 µM
O=CN1CCN(c2ccc(/C=C3\C(=O)Nc4ccccc43)cc2)CC1 | – | IC50 (FLK-1 receptor; Table 10): 6.2 µM
CCc1cc(CC)c(/C=C2\C(=O)Nc3cccc(C)c32)[nH]1 | – | IC50 (FLK-1 receptor; Table 10): 17.3 µM
O=C1Nc2ccc(Cl)cc2/C1=C/c1ccc(N2CCCC2)cc1 | – | IC50 (FLK-1 receptor; Table 10): 12.3 µM
Cc1cc(Cl)cc2c1NC(=O)/C2=C\c1cc(O)c(O)c(Br)c1 | – | IC50 (FLK-1 receptor; Table 10): 18.5 µM
COc1cccc(O)c1C=C1C(=O)Nc2ccc(S(=O)(=O)N3CCOCC3)cc21 [10717/F10] | – | Flk Kinase % Inhibition (FLK-1 receptor): −4.4%
CCc1ccc(/C=C2\C(=O)Nc3ccccc32)cc1 | – | IC50 (FLK-1 receptor; Table 10): 20.3 µM
Cc1c(Br)ccc2c1C(=Cc1cccn1-c1ccc(Cl)cc1)C(=O)N2 [10724/C09] | 5.3% | –
COc1ccc(C=C2C(=O)Nc3ccc(CCCl)cc32)cc1OC [10720/G04] | 5.0% | –
Cc1c(Br)ccc2c1C(=Cc1sc3scc(C)c3c1C)C(=O)N2 [10724/C11] | 4.9% | –
Cc1[nH]c(C=C2C(=O)Nc3ccc(I)cc32)c(Br)c1Br [10717/B11] | 91.0% | –
O=C1Nc2ccc(S(=O)(=O)N3CCOCC3)cc2C1=Cc1c[nH]c2ccccc12 [10717/F06] | 49.0% | –
CCc1ccc(C=C2C(=O)Nc3ccc(I)cc32)o1 [10724/B10] | 95.0% | –
O=C1Nc2c(Br)cc(Br)cc2C1=Cc1cc2ccccc2nc1Cl [10730/A08] | 69.0% | –
CSc1ccc(C=C2C(=O)Nc3ccc(S(=O)(=O)Nc4ccc(C(F)(F)F)cc4)cc32)cc1 [10729/E04] | 9.8% | –
O=C1Nc2ccc(S(=O)(=O)Nc3ccc(C(F)(F)F)cc3)cc2C1=Cc1c[nH]cn1 [10725/E11] | 9.6% | –
Cc1cc(C=C2C(=O)Nc3ccc(CCCl)cc32)cc(C)c1OCc1ccccc1 [10733/G07] | 8.5% | –

SMILES | Met Kinase % Inhibition (human MET) | further results
CNS(=O)(=O)c1ccc2c(c1)C(=Cc1ccc(O)c(C)c1O)C(=O)N2 [10718/D09] | 9.9% | –
Cc1ccc2occ(C=C3C(=O)Nc4c(Br)cc(Br)cc43)c(=O)c2c1 [10731/A06] | 53.0% | –
O=C1Nc2ccc(CCCl)cc2C1=Cc1cc2c([nH]1)CCCC2 [10721/G05] | 8.6% | –
COc1ccc2[nH]cc(C=C3C(=O)Nc4ccc(S(=O)(=O)Nc5ccc(C(F)(F)F)cc5)cc43)c2c1 [10731/E09] | 27.0% | –
COc1ccc(Br)c(C=C2C(=O)Nc3c(Br)cc(Br)cc32)c1O [10725/A03] | 68.0% | –
Cc1c(Br)ccc2c1C(=Cc1ncc[nH]1)C(=O)N2 [10720/C11] | 30.0% | –
COc1c(C(C)C)cc(C=C2C(=O)Nc3ccc(S(=O)(=O)Nc4ccc(C(F)(F)F)cc4)cc32)cc1C(C)C [10732/E03] | 3.9% | –
CCn1c2ccccc2c2cc(C=C3C(=O)Nc4ccc(S(=O)(=O)NC)cc43)ccc21 [10731/D02] | 8.7% | –
O=CN1CCN(c2ccc(C=C3C(=O)Nc4ccc(I)cc43)cc2)CC1 [10725/B07] | 74.0% | –
Cc1c(Br)ccc2c1C(=Cc1coc3ccc([N+](=O)[O-])cc3c1=O)C(=O)N2 [10731/C07] | −11.6% | –
Cc1cc(C=C2C(=O)Nc3ccc(S(=O)(=O)N4CCOCC4)cc32)sc1C [10721/F04] | 26.0% | –
CNS(=O)(=O)c1ccc2c(c1)C(=Cc1cc(Cl)cc(Br)c1O)C(=O)N2 [10727/D04] | 76.0% | –
O=C1Nc2ccc(S(=O)(=O)Nc3ccc(C(F)(F)F)cc3)cc2C1=Cc1c[nH]c(=O)[nH]c1=O [10731/E08] | 59.0% | –
CCCCN(CCCC)c1ccc(C=C2C(=O)Nc3ccc(CCCl)cc32)cc1 [10722/G10] | 27.0% | –
CNS(=O)(=O)c1ccc2c(c1)C(=Cc1ccc(O)c(O)c1O)C(=O)N2 [10723/D02] | 93.0% | –
O=C1Nc2ccc(CCCl)cc2C1=Cc1cccc(Oc2ccccc2)c1 [10729/G06] | 26.0% | –
CC(C)(C)c1cc(C=C2C(=O)Nc3ccc(CCCl)cc32)ccc1O [10721/G09] | 5.1% | –
Cc1cc(C=C2C(=O)Nc3c(Br)cc(Br)cc32)sc1C [10721/A04] | 85.0% | –
O=C1Nc2ccc(I)cc2C1=CC(c1cccs1)C(F)(F)F (stereo not shown) [10732/B02] | 78.0% | –
CC(C)(C)c1cc(C=C2C(=O)Nc3ccc(CCCl)cc32)cc(C(C)(C)C)c1O [10721/G11] | −0.0% | –
O=C1Nc2c(Br)cc(Br)cc2C1=Cc1cc(Cl)ccc1O [10734/A04] | 68.0% | –

SMILES | Met Kinase % Inhibition (human MET) | further results
CC(C)(C)c1cc(C=C2C(=O)Nc3c(Br)cc(Br)cc32)ccc1OCc1ccccc1 [10732/A06] | 5.7% | –
O=C1Nc2ccc(I)cc2C1=Cc1cc2c(cc1Cl)OCO2 [10727/B06] | 91.0% | –
CCCCN(CCCC)c1ccc(C=C2C(=O)Nc3c(Br)cc(Br)cc32)cc1 [10722/A10] | 79.0% | –
CNS(=O)(=O)c1ccc2c(c1)C(=Cc1cc(OC)ccc1O)C(=O)N2 [10720/D10] | 51.0% | –
COc1c(C)cc(C=C2C(=O)Nc3ccc(Br)c(C)c32)cc1C [10733/C06] | 4.1% | –
CNS(=O)(=O)c1ccc2c(c1)C(=Cc1ccc(F)cc1Cl)C(=O)N2 [10719/D09] | 13.0% | –
COc1cccc(OC)c1C=C1C(=O)Nc2ccc(CCCl)cc21 [10728/G03] | 8.8% | –
O=C1Nc2ccc(CCCl)cc2C1=Cc1ccc(Cl)s1 [10721/G07] | 10.0% | –
CC(C)(C)c1cc(C=C2C(=O)Nc3ccc(CCCl)cc32)cc(C(C)(C)C)c1OCc1ccccc1 [10733/G05] | 1.8% | –
Cc1ccc(C=C2C(=O)Nc3ccc(I)cc32)s1 [10717/B07] | 90.0% | –
O=C1Nc2ccc(CCCl)cc2C1=Cc1cc2c3c(c1O)CCCN3CCC2 [10724/G05] | 61.0% | –
O=C1Nc2ccc(S(=O)(=O)Nc3ccc(C(F)(F)F)cc3)cc2C1=Cc1c(F)cccc1C(F)(F)F [10728/E09] | 40.0% | –
CC(C)c1cc(C=C2C(=O)Nc3ccc(S(=O)(=O)Nc4ccc(C(F)(F)F)cc4)cc32)cc(C(C)C)c1Oc1ccccc1 [10732/E04] | 8.2% | –
COc1c(C(C)C)cc(C=C2C(=O)Nc3ccc(Br)c(C)c32)cc1C(C)C [10732/C03] | 14.0% | –
CCc1cc(CC)c(C=C2C(=O)Nc3ccc(S(=O)(=O)N4CCOCC4)cc32)[nH]1 [10727/F03] | 22.0% | –
O=C1Nc2ccc(I)cc2C1=Cc1ccc(C(F)(F)F)cc1 [10722/B11] | 83.0% | –
Cc1ccsc1C=C1C(=O)Nc2ccc(I)cc21 [10729/B05] | 51.0% | –
CNS(=O)(=O)c1ccc2c(c1)C(=Cc1cc(C)c(C)o1)C(=O)N2 [10730/D11] | 9.7% | –
Cc1c(O)ccc(C=C2C(=O)Nc3ccc(CCCl)cc32)c1O [10718/G09] | 27.0% | –
